Experimental data as given in patent US10894885B2, “Crosslinkable composition and method for producing a coated article” (HWK KRONBICHLER GMBH, priority 2016, dated 2021).

Test: Surface tension at a suspended drop (Drop Shape Analyser DSA 25)
Assay type: physicochemical
Conditions: 23.5-25.0° C., ten measurements
Method: The surface tension was determined at a suspended drop using a “Drop Shape Analyser DSA 25” of the Krüss corporation. The measurements were performed at temperatures between 23.5 and 25.0° C. and at a relative humidity of approximately 15-30%. The sample was measured a total of ten times. The standard deviation is marked by s in Table 4 shown below.

OFS (surface tension) (c 0.5 w/w % in water): 21.94 mN/m
OFS (surface tension) (c 1 w/w % in water): 20.58 mN/m
Compound: C=Cn1cc[n+](CCC(F)(F)C(F)(F)C(F)(F)C(F)(F)C(F)(F)C(F)(F)F)c1.[Cl-] [3-(1H,1H,2H,2H-perfluorooctyl)-1-vinyl-1H-imidazoliumchloride]
